From patent US5334595A, “Pyrazoloquinolones as anticancer agents” (priority 1992, dated 1994)
Read-outs that look alike come from different tables or passages of the source.

Tests used:
[1] = test system: P388 murine leukemia cells; assay: In vitro cytotoxicity, one-hour exposure, clonogenic survival of P388 cells; format: cell-based; details: Mus musculus, read-out: in vitro cytotoxicity IC50, 1 hr exp.; P388, 1 hr exposure
Procedure: (§1) In vitro cytotoxicity was assayed by determining cell survival following exposure of P388 murine leukemia cells to a range of test compound concentrations. Cytotoxicity was quantitated following either a one-hour exposure or continuous exposure of P388 cells to test compound.
(§2) A Manual of Basic Technique. […] Briefly, following drug exposure cells were plated in soft agar and incubated (37°, 5% CO2) for 7-10 days during which time viable cells form visible colonies. Cytotoxicity following continuous exposure of cells to test compound was assayed by quantitating total P388 cells on a Coultier Counter following a 48-hour co-incubation of test compound with cells. P388 cells were maintained in log phase throughout the duration of cytotoxicity assays.
(§3) The percentage of cells surviving relative to an untreated control was graphed as a function of increasing drug concentration.

human topoisomerase II = target: T1, human topoisomerase II (Homo sapiens, UniProt P11388); assay: Mammalian topoisomerase II inhibition assay (topo II covalently attached to DNA, relative to mAMSA); format: biochemical; details: read-out: topo II inh. EC50
T1 construct: Topo II was purified from late log phase suspension cultures of HeLa WIS; endogenous in cells; host or cells: HeLa WIS
From the text: The inhibition of human topoisomerase II (hereafter topo II) was quantitated by a procedure adapted from that described by Trask et al., EMBO J., 3, 671-676 (1984). The assay quantitates the amount of topo II covalently attached to DNA at equilibrium during a topo II reaction. This assay determines the potential of a compound to stabilize this complex, which potential is closely related to the cytotoxicity of the compound.
Topo II was purified from late log phase suspension cultures of HeLa WIS by an adaptation of the method described by Per et al., Mol. Pharmacol., 32, 17-25 (1987).
Assays (in duplicate) were assembled at 4° C. Assay mix (25 μl) was distributed in Beckman (No. 265270) 1.5 mL microtiter tubes followed by the addition of 5 μl test compound to yield the final concentrations of assay components:
The assay mix including the test compound was incubated for 20 minutes at 37° C. The reaction was terminated at 37° C. by the addition of 3 μl 10% SDS followed by the addition of 266 μl 10 mM Tris-Cl pH 7.5, 20 μg/ml BSA, 20 μg/ml calf thymus DNA, 1% SDS.
A SDS/protein precipitate was formed by the addition of 28 μl 2.5M KCl followed by chilling on ice for a minimum of 10 minutes. The precipitate was collected and washed with a Brandell cell harvester on a GFB glass fiber filter membrane as follows. The contents of the assay tube were drawn up into the harvester. The tube was then rinsed 7× with 10 mM Tris-Cl pH 7.5, 1 mM EDTA and 100 mM KCl. The precipitate was washed with 1 L of a solution of 10 mM Tris-Cl pH 7.5, 1 mMEDTA, 100 mM KCl followed by 1 L of 95% ethyl alcohol and finally 0.5 L 70% of ethyl alcohol (per 48 samples in each case). After drying, CPM was determined by liquid scintillation counting with 5 ml Biofluor (NEN Research Products) or Readisafe (Beckman Instruments Inc.) cocktail.
Preparation of test compound--A stock solution (6 mg/ml) of test compound was prepared either in 0.1N sodium hydroxide or 0.2N hydrogen chloride. This solution then was diluted 1/5 into water and serially thereafter in either 0.02N sodium hydroxide or 0.04N hydrogen chloride, respectively. The stock solution and serial dilution of the test compound was stored at -20° C. prior to testing.
Screening of test compound--As an initial screen, the test compound was tested at a final concentration of 2, 20 and 200 μg/ml. The compound was then retested at a range of concentrations (usually 2-3×steps) bridging their approximate EC50 's, as estimated by the prescreen.
Controls--A solvent control which indicates the base level of topo II-DNA complex formed in the absence of the test compound was included in each test. A control, in which topo II was omitted, was included for each test compound at the highest drug concentration tested.
Reference Agent--A dose response curve with mAMSA at 0.01, 0.08, 0.16, 0.32, 1.0 and 10 μg/ml was included in each test.
The maximal DNA-topo II complex formed is taken as that equal to that formed at the nearly saturating dose of mAMSA (10 μg/ml).

[2] = In vivo antitumor assay, Panc03(sc); set-up: species or system mice; details: mouse, in vivo, MTD
From the text: Mice: Inbred: C3H/He and NCR-nu; and Hybrids: B6D2F1 (C57BL/6 females×DBA/2 males, CD2F1 (Balb/c females×DBS/2 males) and B6C3fl (C57BL/6×C3H) were bred at Wayne State University from strains obtained from the Frederick Cancer Research Facility, Frederick, Maryland or purchased from commercial suppliers.
Tumors: Murine Tumor: P388 and an adriamycin-resistant (ADR) subline P388/ADR leukemia and the following transplantable solid tumors of mice were used for in vivo testing: B16 melanoma (B16), pancreatic ductal adenocarcinoma No. 03 (Pane 03), colon adenocarcinoma No. 38 (colo 38), lung carcinoma No. 12 (LC 12), mammary ductal adenocarcinoma No. 16/C (Mam16C) and an adriamycin-resistant subline Mam16C/ADR. Human tumor: A single human tumor, mammary carcinoma MX-1 was used for in vivo testing. All tumors are in the Developmental Therapeutics Program frozen tumor respository, maintained by the Biological Testing Branch, Frederick Maryland. Each has a detailed description, code identification number, and list of references at the National Tumor Repository. Murine tumors were maintained in the mouse strain of origin and were transplanted in the appropriate F1 hydrid (or the strain of origin) for therapy trials. Human mammary carcinoma MX-1 (MX1) was maintained as a subcutaneous implant in either athymic Swiss (Cr: NIH(S)-nu) or athymic random bred (NCR-nu) mice and transplanted in NCR-nu for therapy trials.
Chemotherapy: For pancreatic ductal adenocarcinoma No. 3, colon adenocarcinoma No. 38 (colo 38), lung carcinoma No. 12 LC 12) and both adriamycin-sensitive (RP) and-resistant (ADR) mammary ductal adenocarcinoma No. 16 (Mam16) tumors, bilateral tumor implants were used to help ensure a more uniform tumor burden per mouse (thus reducing the requirement for greater numbers of mice per group). The animals necessary to begin an experiment were pooled, implanted bilaterally s.c. on day zero with 30-60 mg tumor fragments using a 12-gauge trocar, and again pooled before randomization to the various treatment and control groups. Chemotherapy was started within three days after tumor implantation while the number of cells per mouse was relatively small (1×10^7 -1×10^8 cells).
Quantitative end points used to assess antitumor activity included % Increased Life Span (% ILS), Tumor Cell Kill (Log10 kill), and Tumor Growth Inhibition (T/C). Long Term Survivors (45 or 60 day) were excluded from calculations of %ILS and Tumor Cell Kill.
The log10 cell kill was calculated from the following formula: [formula] where T-C is the tumor difference in the median day of death between the treated (T) and the control (C) groups and Td is the tumor doubling time (in days), the latter estimated from the best fit straight line from a log-linear growth plot of the control-group tumors in exponential growth. The conversion of the T-C values to log10 cell kill is possible because the Td for tumors regrowing post-treatment approximated the Td values of the tumors in untreated control mice.
Tumors were measured with a caliper once or twice weekly (as needed) until either tumors exceeded 1600 mg or cure was assured. Tumor weights were estimated from two-dimensional measurements: Tumor Weight (mg)=(a×b^2) / 2, where a and b are the tumor length and width (ram) respectively. Measurements were carried out simultaneously in both treatment and control groups. When the control group tumors reached approximately 750-1500 mg in size (median of group), the median tumor weight of each group was determined (including zeros). The T/C value in percent is an indication of antitumor effectiveness. The % T/C was calculated from the following formula for solid murine tumor models: [formula] where T and C are median tumor weights of the treatment and control groups, respectively. A T/C equal to or less than 42% is considered significant antitumor activity. […]

[3] = test system: P388 murine leukemia cells; assay: In vitro cytotoxicity, continuous (48-hour) exposure of P388 cells; format: cell-based; details: Mus musculus; P388, continuous exposure (48-hour); read-out: in vitro cytotoxicity IC50, cont. exp.
Procedure: as §1, §2, §3

[4] = conc. achieving 50% of maximal effect of mAMSA, topo II from HeLa cells

T1 sequence (P11388 whole entry): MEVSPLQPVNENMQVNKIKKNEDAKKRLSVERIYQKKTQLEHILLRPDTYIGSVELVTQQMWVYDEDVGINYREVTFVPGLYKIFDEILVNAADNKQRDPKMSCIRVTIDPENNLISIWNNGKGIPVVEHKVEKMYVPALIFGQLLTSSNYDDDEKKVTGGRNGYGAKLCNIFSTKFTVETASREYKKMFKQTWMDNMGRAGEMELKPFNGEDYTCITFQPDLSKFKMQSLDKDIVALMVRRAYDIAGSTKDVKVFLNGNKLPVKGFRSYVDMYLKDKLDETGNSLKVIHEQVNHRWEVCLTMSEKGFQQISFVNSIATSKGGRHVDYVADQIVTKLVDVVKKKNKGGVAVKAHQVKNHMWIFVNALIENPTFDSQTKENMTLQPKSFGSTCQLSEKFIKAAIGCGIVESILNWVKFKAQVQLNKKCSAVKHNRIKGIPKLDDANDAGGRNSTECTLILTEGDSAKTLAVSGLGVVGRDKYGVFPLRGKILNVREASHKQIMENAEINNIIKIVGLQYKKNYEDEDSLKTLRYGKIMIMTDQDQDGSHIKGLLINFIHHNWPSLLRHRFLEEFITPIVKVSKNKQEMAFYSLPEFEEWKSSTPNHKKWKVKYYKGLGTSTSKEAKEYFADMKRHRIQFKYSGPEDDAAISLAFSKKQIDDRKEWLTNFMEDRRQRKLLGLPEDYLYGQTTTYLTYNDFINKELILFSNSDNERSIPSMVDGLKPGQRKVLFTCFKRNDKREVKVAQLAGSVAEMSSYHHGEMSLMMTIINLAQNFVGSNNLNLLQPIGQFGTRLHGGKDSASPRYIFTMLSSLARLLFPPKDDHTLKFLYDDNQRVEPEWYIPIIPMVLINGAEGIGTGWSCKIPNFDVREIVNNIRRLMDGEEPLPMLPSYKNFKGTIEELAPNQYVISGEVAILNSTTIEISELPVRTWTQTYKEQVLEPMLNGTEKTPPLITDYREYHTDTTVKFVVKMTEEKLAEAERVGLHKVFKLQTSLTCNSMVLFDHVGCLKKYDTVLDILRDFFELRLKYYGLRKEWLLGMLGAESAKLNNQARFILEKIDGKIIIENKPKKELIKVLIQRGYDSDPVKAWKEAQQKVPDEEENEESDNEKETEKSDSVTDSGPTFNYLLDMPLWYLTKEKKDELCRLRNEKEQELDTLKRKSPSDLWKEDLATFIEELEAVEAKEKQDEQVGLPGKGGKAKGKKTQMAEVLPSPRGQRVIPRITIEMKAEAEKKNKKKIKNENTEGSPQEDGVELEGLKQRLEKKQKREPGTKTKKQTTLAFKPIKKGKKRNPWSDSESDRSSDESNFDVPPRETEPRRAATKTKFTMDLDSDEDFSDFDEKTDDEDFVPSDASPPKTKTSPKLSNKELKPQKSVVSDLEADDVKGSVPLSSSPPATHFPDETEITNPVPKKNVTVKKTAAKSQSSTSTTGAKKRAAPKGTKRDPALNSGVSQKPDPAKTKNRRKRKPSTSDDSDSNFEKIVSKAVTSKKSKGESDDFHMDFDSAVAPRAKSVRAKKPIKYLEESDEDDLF

Row | SMILES | IC50 [1] [µM] | EC50 (human topoisomerase II; [4]) [µM] | MTD ([2]; sc) [mg/kg] | IC50 [3] [µM] | EC50 (human topoisomerase II; footnote c: bell-shaped dose response curve noted, 50% of maximal effect of mAMSA) [µM] | MTD ([2]; iv) [mg/kg] | MTD [2] [mg/kg]
1 | Cc1cc(-c2c(F)cc3c4n[nH]c(=O)c-4cn(C4CC4)c3c2F)cc(C)n1 [Example 6] | 7.9 | 11 | > 2500 | 3.6 | – | – | –
2 | Cc1cc(-c2c(F)cc3c4nn(-c5ccccc5)c(=O)c-4cn(C4CC4)c3c2F)cc(C)n1 [Example 22] | – | 2.7 | 635 | 0.84 | – | – | –
3 | COc1ccc(-n2nc3c4cc(F)c(-c5cc(C)nc(C)c5)c(F)c4n(C4CC4)cc-3c2=O)cc1 [Example 23] | – | – | 1150 | 5.2 | 6.8 | 140 | –
4 | Cc1cc(-c2c(F)cc3c4nn(C5CCN(C)CC5)c(=O)c-4cn(C4CC4)c3c2F)cc(C)n1 [Example 50] | 0.094 | 3.2 | – | – | – | 128 | –
5 | Cc1cc(-c2c(F)cc3c4nn([C@H]5CC[C@H](N)CC5)c(=O)c-4cn(C4CC4)c3c2F)cc(C)n1 [Example 56b, 2-(trans-4-aminocyclohexyl)-5-cyclopropyl-6,8-difluoro-2,5 dihydro-7-(2,6-dimethyl-4-pyridinyl)-3H-pyrazolo[4,3-c]quinolin-3-one] | 1.5 | 4.2 | – | – | – | – | 550
6 | Cc1cc(-c2c(F)cc3c4nn(CCC5CCCN5C)c(=O)c-4cn(C4CC4)c3c2F)cc(C)n1 (stereo not drawn) [Example 21] | 0.33 | 3.5 | – | 0.16 | – | 80 | –
